Laboratory results published in patent US8142812B2, “Chemical carrier based on a beta-limit dextrin” (Glycologic Limited, priority 2002, dated 2012).

Assay: Drug interaction and stability with β-limit dextrin in solution
Type: physicochemical
Source text: There are many potential applications with respect to dispersing and solubilising insoluble compounds. […] Drug interaction and stability with β-limit dextrin in solution

[1] = drug 1% in β-limit dextrin (5%)
[2] = drug 1% in β-limit dextrin (10%)

Drug interaction and stability in solution (drug 1% in Water)	Drug interaction and stability in solution [1]	Drug interaction and stability in solution [2]	SMILES
Dissolved	Dissolved	Dissolved	O=C1O[C@H]([C@@H](O)CO)C(O)=C1O [Ascorbic acid]
Not suspended	Suspended	Suspended	CC(=O)Oc1ccccc1C(=O)O [Aspirin]
Not suspended	Suspended	Suspended	Cn1c(=O)c2[nH]cnc2n(C)c1=O [Theophylline]
